Results on four compounds are retold here after patent publication US8916604B2, “Compositions and methods for epigenetic modification of nucleic acid sequences” (Rutgers, The State University of New Jersey, priority 2011, dated 2014).

Data set [1] relates to antioxidant response element (ARE). Nature of the data set: ARE-luciferase reporter assay with combination index calculation. Format: cell-based, human. The protocol:
The stably transfected single clone HepG2-ARE-C8 (HepG2-C8) cell line has been established previously in our laboratory using the […]-luciferase reporter gene. The cells were maintained in Dulbecco's modified Eagle medium supplemented with 10% fetal bovine serum (FBS), 1.17 g/l sodium bicarbonate, and 100 unit/ml penicillin, 100 μg/ml streptomycin at 37° C. in a humidified incubator with 5% CO2. The HepG2-C8 cells were cultured in 12-well plates and each well contained 1 million cells in 1 ml of 10% FRS medium. The cells were treated with compounds for 24 h. The luciferase activity was determined using a luciferase kit from Promega (Madison, USA) according to the manufacturer's instructions. Briefly, after treatments for 24 h, the cells were washed twice with ice-cold phosphate buffered-saline (PBS, pH 7.4) and harvested in 1× reporter lysis buffer and […]. After centrifugation at 4° C., 12000 rpm for 5 min, a 10 μl aliquot of the supernatant was assayed for luciferase activity with a Sirius luminometer (Berthold Detection System GmbH, Pforzheim, Germany). The luciferase activity was normalized against protein concentration, determined by a BCA protein assay (Pierce, Rockford, USA), and expressed as the fold induction over the luciferase activity of control vehicle-treated cells. At least two to three independent studies were conducted in triplicates. To determine the synergistic effect between the combination of two different compounds, the combination index (CI) was calculated with the following formula: […] This approach is based on the Loewe additivity model and although the exact mechanism of interaction may be unknown, this model is one of the most commonly used reference models for evaluating potential drug-drug interactions Lee et al., J Biopharm Stat 2007; 17: 461-480).

The conditions of data set [2]: oral; cited from earlier work.
The test system of another data set is Nrf2. Nature of the data set: qPCR mRNA expression in HepG2-C8 cells. Format: cell-based, human. The conditions noted are these: 25 μM, 6 h, vs 0.1% DMSO. The protocol:
(§1) The cells were treated similarly to the NITS and ARE-luciferase assays described above using 10% FBS medium. The incubation of the compounds with the cells was terminated 6 h later. The mRNA expression was evaluated utilizing a quantitative real-time polymerase chain reaction (qPCR). An RNeasy kit from Qiagen was used for RNA extraction (Valencia, Calif.). The total RNA was reverse-transcribed to cDNA by TaqMan Reverse Transcription Reagents (Applied Biosystems Inc, Foster City, Calif.). SYBR Green (Applied Biosystems Inc, Foster City, Calif.) fluorescence was used to measure the product of qPCR. Glyceraldehyde 3-phosphate dehydrogenase (GAPDH) was used as the housekeeping gene, and the Applied Biosystems 7900HT Fast Real-Time PCR System (Applied Biosystems Inc, Foster City, Calif.) was used as described previously (Saw et al., Biochem Pharmacol 2010; 79: 421-430) to detect quantitatively the induction of mRNA of Nrf2, phase II DME GSTm2, NAD (P)H dehydrogenase, quinone 1 (NQO1), UGT family, polypeptide A1 (UGT1A1) and antioxidant enzymes HO-1, superoxide dismutase 1 (SOD1). The primer pairs were designed using the Primer Quest Oligo Design and Analysis Tool by Integrated DNA Technologies Inc. (Coralville, Iowa, USA) and the sequences are listed in Table 4. At least four wells of each treatment were performed and duplicate samples were carried out for each treatment.
In general terms: In qPCR the cycle at which signal appears reflects the starting amount.

A further data set relates to HO-1. The experiment in a line: qPCR mRNA expression in HepG2-C8 cells. Format: cell-based, human. The settings on record: 25 μM, 6 h, vs 0.1% DMSO. The method, then:
as §1

A further data set concerns HepG2-C8 cells. Nature of the data set: MTS cell viability assay. The class given is cell-based, human. The protocol: The stably transfected single clone HepG2-ARE-C8 (HepG2-C8) cell line has been established previously in our laboratory using the […]-luciferase reporter gene. The cells were maintained in Dulbecco's modified Eagle medium supplemented with 10% fetal bovine serum (FBS), 1.17 g/l sodium bicarbonate, and 100 unit/ml penicillin, 100 μg/ml streptomycin at 37° C. in a humidified incubator with 5% CO2. […] MTS] (Promega, Madison, Wis.). […] The cells were then treated with MTS for 1 h at 37° C. Absorbance of the formazan product was read at 490 nm with a μQuant Biomolecular Spectrophotometer from Bio-Tek Instruments Inc. (Winooski, Vt.). Independent control studies were conducted using 1% and 10% FBS medium.

For data set [3], the system named is first 5 CpGs in the promoter region of Nrf2 gene. The conditions noted are these: TRAMP C1 cells, other DNA de-methylating agents; cited from earlier work.
The next data set deals with NQO1. The experiment in a line: qPCR mRNA expression in HepG2-C8 cells. Format: cell-based, human. The settings on record: 6 h. The protocol: as §1
[4] abbreviates: Homo sapiens, HepG2C8, 1% FBS medium, read-out: cell viability inhibitory concentrations (IC50).

Where two headings read alike, the source gives them in different places.

Turning to `OCc1c[nH]c2ccccc12` [I3C, indole-3-carbinol], in data set [1] (doses lower than 25 μM, 10% FBS medium (data not shown)), the “induction of ARE-luciferase” value is on record as “no significant induction”. For the same compound, the tolerability result in data set [2] was “well tolerated”. Besides, the “Nrf2 mRNA induction over control” value with Nrf2 was “did not show significant induction”. Further, the “HO-1 mRNA induction over control” value in the data set with HO-1 is given as “did not show significant induction”. Besides, the IC50 worked out at 135 µM with HepG2-C8 cells (1% FBS medium, read-out: cell viability inhibitory concentrations (IC50)) and 300 µM in the data set on HepG2-C8 cells (10% FBS medium (data not shown), read-out: cell viability IC50).
For `COc1cc(/C=C/C(=O)CC(=O)/C=C/c2ccc(O)c(OC)c2)ccc1O` [curcumin], the “CpG methylation of the first 5 CpGs of the promoter of Nrf2 gene” value in data set [3] is listed as “decreased CpG methylation”.
With `S=C=NCCc1ccccc1` [PEITC, phenethyl isothiocyanate], in the data set on NQO1 (1 μM), the NQO1 gene expression entry is listed as “greatly induced”. For the same compound, the IC50 in the data set on HepG2-C8 cells (setting [4]) was ~20 µM.
`C[S+]([O-])CCCCN=C=S` (stereo not drawn) [SFN, sulforaphane]: in data set [1] (time course study, after treatment), the “time of peak induction of ARE-luciferase activity” value was 18 h. In the data set with NQO1 (any concentration), the NQO1 gene expression result was “not significantly induced”. Further, the IC50 in the data set on HepG2-C8 cells (setting [4]) was ~20 µM.
